In brackets after ≈: the same amount, converted by molar mass.
Columns and labels:
E. coli EMG2 [1] = test: Survival of mice infected with bacteria; assay type: in vivo; conditions: 8.8×10^7 CFU/mouse i.p.; 1 hour later i.v. 0.2 mg/kg ofloxacin with or without 10^9 PFU/mouse phage; observed 5 days
Description: After 1 hour, the mice received either no treatment or intravenous treatment with no phage, unmodified phage φunmod, or engineered phage φlexA3 with 0.2 mg/kg ofloxacin. 10^9 PFU/mouse phage was used.
Increasing Survival of Mice Infected with Bacteria. To determine the clinical relevance of antibiotic-enhancing phage in vivo, the inventors applied the engineered phage φlexA3 with ofloxacin to prevent death in mice infected with bacteria. Mice were injected with E. coli EMG2 intraperitoneally 1 hour prior to receiving different intravenous treatments (FIG. 3A). Eighty percent of mice that received φlexA3 with ofloxacin survived, compared with 50% and 20% for mice that received φunmod plus ofloxacin or ofloxacin alone, respectively (FIG. 3B).

E. coli EMG2 [2] = test: Antibiotic resistance assay; assay type: cell-based; conditions: 30 ng/mL ofloxacin 24 hours; phage (10^9 PFU/mL) added for the last 12 hours where named
Description: Antibiotic resistance assay. To analyze the effect of subinhibitory concentrations of ofloxacin on the development of antibiotic-resistant mutants, the inventors grew 1:10^8 dilutions of overnight EMG2 in LB media containing either no ofloxacin (FIG. 4) or 30 ng/mL ofloxacin (FIG. 7). After 12 hours of growth at 37° C. and 300 rpm, the inventors split the cells grown in no ofloxacin into 100 uL aliquots with no ofloxacin in 60 wells in 96-well plate format (Costar 3370; Fisher Scientific, Pittsburgh, Pa.). The inventors also split the cells grown in 30 ng/mL ofloxacin into 100 uL aliquots in 60 wells with either no phage and 30 ng/mL ofloxacin (FIG. 7B), φunmod phage and 30 ng/mL ofloxacin (FIG. 7C), and φlexA3 and 30 ng/mL ofloxacin (FIG. 7D) in 96-well plate format. The inventors placed the 96-well plates in 37° C. and 300 rpm with plastic bags to minimize evaporation. After 12 hours of treatment, the inventors plated cultures from each well on LB agar+100 ng/mL ofloxacin to select for mutants that developed resistance against ofloxacin. To compare results, the inventors plotted histograms of the number of resistant bacteria found in each well in FIGS. 4 and 8.

E. coli EMG2 [3] = test: Minimum inhibitory concentration of ofloxacin; assay type: cell-based; conditions: Escherichia coli, data not shown
E. coli EMG2 [4] = test: Ofloxacin killing assay; assay type: cell-based; conditions: 60 ng/mL ofloxacin, no phage, 6 hours of treatment
Description: Determination of colony forming units. To obtain CFU counts, 150 μL of relevant cultures were collected, washed with 1× phosphate-buffered saline (PBS), recollected, and resuspended in 150 μL of 1×PBS. Serial dilutions were performed with 1×PBS and sampled on LB agar plates. LB agar plates were incubated at 37° C. overnight before counting.
Ofloxacin killing assay. To determine the adjuvant effect of engineered phage (FIG. 1B, FIG. 3A and FIG. 3D), the inventors grew 1:500 dilutions of overnight EMG2 cells for 3 hours and 30 minutes at 37° C. and 300 rpm to late-exponential phase and determined initial CFUs. Then, the inventors added 60 ng/mL ofloxacin by itself or in combination with 10^8 PFU/mL bacteriophage (unmodified φunmod or engineered φLexA, φSoxR, φcsr, φompF, or φCsr-ompF phage) and treated at 37° C. and 300 rpm. At indicated time points, the inventors determined CFUs as described above. Mean killing (Δlog10 (CFU/mL)) was determined by subtracting mean initial log10 (CFU/mL) from mean log10 (CFU/mL) after treatment in order to compare data from different experiments. This protocol was replicated with E. coli RFS289 to determine the ofloxacin-enhancing effect of engineered φlexA3 phage against antibiotic-resistant bacteria (FIG. 2). […]

With `CC1COc2c(N3CCN(C)CC3)c(F)cc3c(=O)c(C(=O)O)cn1c23` (stereo not shown) [ofloxacin] the mice that survived (E. coli EMG2 [1]) was 20%, the “number of mutants resistant to 100 ng/mL ofloxacin (median of 60 samples)” value (E. coli EMG2 [2]) was 1592 and the MIC (E. coli EMG2 [3]) was 0.06 µg/mL (≈ 0.166 µM). For the same molecule, the “reduction of bacteria exposed only to ofloxacin” value (E. coli EMG2 [4]) was “about 1.7 log10 (CFU/mL)”.
